Measured values as given in ChEMBL document CHEMBL1154980, “Tetrapeptides possessing a unique skeleton, JBIR-34 and JBIR-35, isolated from a sponge-derived actinomycete, Streptomyces sp. Sp080513GE-23” (J Nat Prod, 2010).
pIC50: −log10 of the molar value. Calls of active or inactive are those of the source. The rule behind the calls is not given here.

Assays:
Escherichia coli = experiment: Antibacterial activity against Escherichia coli; format: functional, organism-based
[1] = test system: Radical scavenging activity; experiment: Antioxidant activity assessed as DPPH radical scavenging activity after 1 hr; format: functional
Micrococcus luteus = experiment: Antibacterial activity against Micrococcus luteus; format: functional, organism-based

Row | Compound | Activity (Escherichia coli) | pIC50 [1] | Activity (Micrococcus luteus)
1 | C[C@@H](NC(=O)[C@@]1(C)COC(c2cn(C)c3cc(Cl)cc(O)c23)=N1)C(=O)N[C@@H](CO)C(=O)O | inactive | 2.60 | inactive
2 | Cc1c(C)c2c(c(C)c1O)CC[C@@](C)(CCC[C@H](C)CCC[C@H](C)CCCC(C)C)O2 [ALPHA-TOCOPHEROL] | – | 4.30 | –
3 | Cc1c(Cl)cc2c(c(C3=N[C@@](C)(C(=O)N[C@H](C)C(=O)N[C@@H](CO)C(=O)O)CO3)cn2C)c1O | inactive | 3.00 | inactive
